Patent US8993566B2, “Quinoline compound composing 1,2,4-triazine-dione and use thereof” (Wuhan Shengyun Biopharma Co., Ltd., priority 2012, dated 2015)

Columns and labels:
[1] = tested on: human nonsmall-cell lung cancer cell H460; assay: In vitro anti-tumor cell activity (MTT), H460; format: cell-based; conditions: H460 cells, MTT, 72 h, Bliss method
Summary of the method: (§1)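 Cells seeded at 10^4 cells/well and grown 24 h were exposed to compounds for 72 h. Viability was read by MTT (0.5 mg/mL, 4 h) with formazan dissolved in DMSO, and IC50 was derived by the Bliss method.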

[2] = tested on: human colon cancer cell HT-29; assay: In vitro anti-tumor cell activity (MTT), HT-29; format: cell-based; conditions: HT-29 cells, MTT, 72 h, Bliss method
Summary of the method: as §1

[3] = tested on: human hepatoma carcinoma cell line SMMC-7721; assay: In vitro anti-tumor cell activity (MTT), SMMC-7721; format: cell-based; conditions: SMMC-7721 cells, MTT, 72 h, Bliss method
Summary of the method: as §1

[4] = target: T1, c-Met kinase (His-tagged recombinant human Met (amino acids 974-end)) (Homo sapiens, UniProt P08581); assay: c-Met Enzyme Activity Inhibition Assay (ELISA); format: biochemical; conditions: 50 pM c-Met, 5 μM ATP, room temperature 20 min
T1 construct: His-tagged recombinant human Met (amino acids 974-end); His
Summary of the method: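 Baculovirus-expressed His-tagged c-Met (974-end) at 50 pM with 5 μM ATP, 25 mM MOPS pH 7.4, MgCl2, MnCl2, vanadate, DTT, 1% DMSO, incubated 20 min at room temperature on POT-coated plate. Phosphorylated polymer detected with HRP-conjugated PY20 antibody, TMB read at 450 nm.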

[5] = tested on: human gastric cancer cell MKN-45; assay: In vitro anti-tumor cell activity (MTT), MKN-45; format: cell-based; conditions: MKN-45 cells, MTT, 72 h, Bliss method
Summary of the method: as §1

T1 sequence (P08581 956-1390): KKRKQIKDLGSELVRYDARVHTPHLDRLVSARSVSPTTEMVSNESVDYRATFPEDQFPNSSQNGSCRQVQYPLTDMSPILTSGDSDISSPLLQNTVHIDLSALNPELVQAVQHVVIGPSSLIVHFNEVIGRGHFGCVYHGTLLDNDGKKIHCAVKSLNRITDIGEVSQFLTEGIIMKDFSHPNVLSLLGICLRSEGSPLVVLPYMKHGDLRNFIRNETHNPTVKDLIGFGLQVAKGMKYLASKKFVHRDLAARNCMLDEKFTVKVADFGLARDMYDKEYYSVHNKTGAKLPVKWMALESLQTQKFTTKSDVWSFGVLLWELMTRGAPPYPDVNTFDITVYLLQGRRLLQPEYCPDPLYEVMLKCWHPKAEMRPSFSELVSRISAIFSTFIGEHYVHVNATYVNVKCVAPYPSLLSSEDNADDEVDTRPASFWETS

Substance	H460 IC50 [1]	HT-29 IC50 [2]	SMMC-7721 IC50 [3]	IC50 for inhibiting c-Met kinase [4]	MKN-45 IC50 [5]
N-[3-fluoro-4-[6-methoxy-7-[3-(4-methyl-1-piperazinyl)propyloxy]quinolin]-4-oxy]phenyl]-2-(3-trifluoromethylphenyl)-4-benzyl-3,5-dicarbonyl-2,3,4,5-tetrahydro-1,2,4-triazine-6-carboxamide [Example 47]	1.1 µg/mL	0.09 µg/mL	3.7 µg/mL	5.92 µg/mL	0.4 µg/mL
N-[3-fluoro-4-[6-methoxy-7-[3-(4-methyl-1-piperidinyl)propyloxy]quinolin-4-oxy]phenyl]-2-(3-trifluoromethylphenyl)-4-methyl-3,5-dicarbonyl-2,3,4,5-tetrahydro-1,2,4-triazine-6-carboxamide [Example 24]	0.28 µg/mL	0.5 µg/mL	0.61 µg/mL	0.18 µg/mL	0.093 µg/mL
N-[3-fluoro-4-[6-methoxy-7-[3-(4-methyl-1-piperidinyl)propyloxy]quinolin-4-oxy]phenyl]-2-(4-methylphenyl)-4-methyl-3,5-dicarbonyl-2,3,4,5-tetrahydro-1,2,4-triazine-6-carboxamide [Example 14]	0.15 µg/mL	0.11 µg/mL	0.88 µg/mL	0.088 µg/mL	2.1 µg/mL
N-[3-fluoro-4-[6-methoxy-7-[3-(4-methyl-1-piperidinyl)propyloxy]quinolin-4-oxy]phenyl]-2-phenyl-4-methyl-3,5-dioxo-2,3,4,5-tetrahydro-1,2,4-triazine-6-carboxamide [Example 4]	0.087 µg/mL	0.13 µg/mL	0.071 µg/mL	0.63 µg/mL	0.053 µg/mL
N-[3-fluoro-4-[6-methoxy-7-[3-(4-morpholinyl)propyloxy]quinolin-4-oxy]phenyl]-2-(2-fluorophenyl)-4-methyl-3,5-dicarbonyl-2,3,4,5-tetrahydro-1,2,4-triazine-6-carboxamide [Example 23]	0.57 µg/mL	0.35 µg/mL	0.44 µg/mL	0.82 µg/mL	0.0028 µg/mL
N-[3-fluoro-4-[7-methoxy-6-[3-(1-piperidinyl)propyloxy]quinolin-4-oxy]phenyl]-2-(2-trifluoromethylphenyl)-4-allyl-3,5-dicarbonyl-2,3,4,5-tetrahydro-1,2,4-triazine-6-carboxamide [Example 37]	1.7 µg/mL	0.88 µg/mL	2.3 µg/mL	3.7 µg/mL	0.12 µg/mL
N-[3-fluoro-4-[7-methoxy-6-[3-(1-pyrrolidyl)propyloxy]quinolin-4-oxy]phenyl]-2-(2-trifluoromethylphenyl)-4-butyl-3,5-dicarbonyl-2,3,4,5-tetrahydro-1,2,4-triazine-6-carboxamide [Example 35]	0.12 µg/mL	0.079 µg/mL	0.31 µg/mL	0.03 µg/mL	0.005 µg/mL
N-[3-fluoro-4-[7-methoxy-6-[3-(1-pyrrolidyl)propyloxy]quinolin-4-oxy]phenyl]-2-(3-fluorophenyl)-4-butyl-3,5-dioxo-2,3,4,5-tetrahydro-1,2,4-triazine-6-carboxamide [Example 30]	0.18 µg/mL	0.11 µg/mL	0.46 µg/mL	0.058 µg/mL	0.043 µg/mL
N-[3-fluoro-4-[7-methoxy-6-[3-(4-methyl-1-piperidinyl)propyloxy]quinolin-4-oxy]phenyl]-2-(2-trifluoromethylphenyl)-4-allyl-3,5-dioxo-2,3,4,5-tetrahydro-1,2,4-triazine-6-carboxamide [Example 36]	1.7 µg/mL	0.43 µg/mL	2.4 µg/mL	1.1 µg/mL	0.21 µg/mL
N-[3-fluoro-4-[7-methoxy-6-[3-(4-methyl-1-piperidinyl)propyloxy]quinolin-4-oxy]phenyl]-2-(2-trifluoromethylphenyl)-4-butyl-3,5-dicarbonyl-2,3,4,5-tetrahydro-1,2,4-triazine-6-carboxamide [Example 33]	0.15 µg/mL	0.18 µg/mL	0.43 µg/mL	0.27 µg/mL	0.09 µg/mL
N-[3-fluoro-4-[7-methoxy-6-[3-(4-methyl-1-piperidinyl)propyloxy]quinolin-4-oxy]phenyl]-2-phenyl-4-butyl-3,5-dioxo-2,3,4,5-tetrahydro-1,2,4-triazine-6-carboxamide [Example 28]	0.25 µg/mL	0.31 µg/mL	0.44 µg/mL	0.31 µg/mL	0.077 µg/mL
N-[3-fluoro-4-[7-methoxy-6-[3-(4-morpholinyl)propyloxy]quinolin-4-oxy]phenyl]-2-(2-fluorophenyl)-4-butyl-3,5-dioxo-2,3,4,5-tetrahydro-1,2,4-triazine-6-carboxamide [Example 29]	0.0056 µg/mL	0.12 µg/mL	0.014 µg/mL	0.61 µg/mL	0.0009 µg/mL
N-[3-fluoro-4-[7-methoxy-6-[3-(4-morpholinyl)propyloxy]quinolin-4-oxy]phenyl]-2-(3-trifluoromethylphenyl)-4-butyl-3,5-dicarbonyl-2,3,4,5-tetrahydro-1,2,4-triazine-6-carboxamide [Example 34]	0.028 µg/mL	0.11 µg/mL	0.18 µg/mL	0.017 µg/mL	0.013 µg/mL
